# Data from ChEMBL document CHEMBL3507680, “University of Dundee, Gates Library screen for HepG2 cell viability”.
# Test: Human HepG2 cell viability assay in 384 well format
# Format: toxicity, cell-based
# Set-up: dose 125 nL, time 70.5 hour; cytotoxicity at 70.5 h: concentration not given beside the values
# Conditions: HepG2 cells, read-out: Inhibition
row,SMILES,cytotoxicity at 70.5 h
1,NC(=O)NC(=O)CNc1cccc(C(=O)c2ccccc2)c1,13.6%
2,Cc1cc(C)n(CC2CCCN2C(=O)c2ccc3c(c2)OCO3)n1 (stereo not given),6.92%
3,CSc1ccccc1C(=O)C1CCCN(Cc2cc(C(C)C)[nH]n2)C1 (stereo not given),-6.68%
4,CC1(C)CN=C(N2CCN(CC3CCOC3)CC2)S1 (stereo not given),-12.3%
5,CCN1CC(C(=O)N(C)Cc2ccon2)CC1=O (stereo not given),25.3%
6,COc1nn(C)c2c1CCCN(S(=O)(=O)c1cccc(C)c1)C2,-4.74%
7,Cc1c(C(=O)N2CCCC(C(=O)c3nccn3C)C2)c[nH]c(=O)c1C#N (stereo not given),-7.06%
8,Cc1ccc(O)c(C(=O)N2CCC(CN3CCCCCC3)CC2)c1,-6.42%
9,CCN1CC2(CCC1=O)CCN(c1ccc(C(C)=O)cn1)CC2,-3.76%
10,CCCc1nc(CNC(=O)Cc2cc(C)no2)cs1,19.8%
11,O=C(c1cc[nH]n1)N1CCCC1c1cncc(CN2CCOCC2)n1 (stereo not given),-4.87%
12,CC(C)N1CCC(C(=O)N2CCC(C(O)c3nccn3C)CC2)CC1 (stereo not given),-11.2%
13,CCc1cnc(N2CCN(Cc3ccon3)CC2)s1,-6.28%
14,O=C1NCCCCC1Sc1ccc(F)c(F)c1 (stereo not given),-13.1%
15,Cc1ccc(C2COCCN2C(=O)c2ccc(CN(C)C)cc2)o1 (stereo not given),-6.21%
16,Cc1cc(N2CCN(Cc3ccnn3C)CC2)cc(C2CCCN2)n1 (stereo not given),13%
17,CC(C)N(C)Cc1cnc2n1CCN(CCc1ccccc1)C2,4.09%
18,CC(=O)c1cccc(S(=O)(=O)NCC(C)(O)c2cccs2)c1 (stereo not given),-7.85%
19,O=C(Nc1c(F)cccc1Oc1ccccc1)C1CCS(=O)(=O)C1 (stereo not given),-1.02%
20,COCC1CN(C(=O)c2cnc(C)cn2)Cc2ncnn2C1 (stereo not given),19%
21,Cn1ccnc1CN1CCC2(CC1)CN(c1cncnc1)C(=O)CO2,-3.27%
22,CC/N=c1/c(NC(=O)NCCOC)c(O)oc2ccccc12,30.4%
23,CCn1ccnc1CN1CCCC1c1c(C)nn(C)c1OC (stereo not given),-4.2%

row,SMILES,cytotoxicity at 70.5 h
1,CC(C)(C)N1CC(C(=O)NCc2cn3cccnc3n2)CC1=O (stereo not given),-5.98%
2,CC(C)Oc1cccc(C(O)CNC(=O)Nc2cccs2)c1 (stereo not given),-4.72%
3,CN1CC(=O)N(c2cnn(C)c2)CC12CCN(CC1CC1)C2 (stereo not given),-2.29%
4,CCn1c(C)nnc1CN(C)C1CCN(Cc2nccn2C)C1 (stereo not given),3.01%
5,Cc1cnc(NC(=O)c2cccc(CN(C)Cc3ccno3)c2)s1,-4.32%
6,O=C1CC[C@@H]2[C@@H](CCN2Cc2ccccn2)N1CC1CC1,-3.44%
7,O=C(C1CCCC1)N1CC2(CCN(C3COC3)C2)Cc2ccccc21 (stereo not given),-10.8%
8,c1ncc2c(n1)CN(Cc1nc(-c3ccoc3)no1)CC2,-7.49%
9,CCn1nc(C)c2ccn(CC(=O)NCCCOC)c(=O)c21,-6.99%
10,CN(C)C(=O)CN1C[C@H]2CCN(C(=O)C3CCCO3)CC[C@H]2S1(=O)=O (stereo not given in full),-4.76%
11,O=C1CCCCCN1Cc1ncnn1Cc1c(F)cccc1Cl,-5.62%
12,CCc1nccn1C1CCCN(C(=O)CCCNc2ncccn2)C1 (stereo not given),-1.35%
13,O=C(CCc1nc(Cl)n[nH]1)NC1CCCN(C2Cc3ccccc3C2)C1 (stereo not given),-9.23%
14,COC(=O)CC(c1cccnc1)c1oc(C)cc(=O)c1O (stereo not given),-16.7%
15,CCOC(=O)CNC(=O)c1cccnc1Sc1cc(OC)ccc1OC,11.1%
16,Cc1cc(C(=O)N2CCCC(c3noc(C)n3)C2)[nH]n1 (stereo not given),34.4%
17,CS(=O)(=O)N[C@@H]1CN(C(=O)c2ccccn2)C[C@@H]2CCCO[C@@H]21,-9.33%
18,Cc1cc(C(=O)NCCCn2nccc2C2CC2)c(=O)[nH]c1C,-14.7%
19,Cc1cc(CN2CCN(Cc3ccccc3F)CC2)no1,6.67%
20,COc1ccc(CNC(=O)c2cc3c(nc2O)CCC(C)C3)cc1 (stereo not given),-8.97%
21,Cc1nnc2n1CCN(Cc1nc3c(F)cccc3[nH]1)C2,-9.16%
22,CS(=O)(=O)N1CCC(n2nnn(-c3ccccc3)c2=O)CC1,-1.71%
